Test results published in PubChem BioAssay AID330 (DTP/NCI, 2004).
Values joined by “and” are separate entries in the source; they are usually repeats but may differ in a detail not shown here. Identical values can stand only once. Toxic doses and inconclusive results are not listed. Rule for the calls: active = survival T/C of 150% or more; inactive = T/C below 125% in these data.

Test system: P388 leukemia ip, CD2F1 mice, survival T/C
Assay: NCI In Vivo Anticancer Drug Screen. Data for tumor model P388 Leukemia (intraperitoneal) in CD2F1 (CDF1) mice
Settings: endpoint: median survival time, higher = longer survival
Summary of the method: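 Mice carrying the transplanted tumor received test compound or vehicle. Survival was recorded in each group, and the value is the treated-group measurement divided by that of the vehicle-treated control group.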

[1] = dose: 50.0 mg/kg/injection, schedule: Q01DX005 (ip), vehicle: Klucel (hydroxypropylcellulose) (HPC)
[2] = dose: 100.0 mg/kg/injection, schedule: Q01DX005 (ip), vehicle: Klucel (hydroxypropylcellulose) (HPC)
[3] = dose: 200.0 mg/kg/injection, schedule: Q01DX005 (ip), vehicle: Klucel (hydroxypropylcellulose) (HPC)
[4] = dose: 50.0 mg/kg/injection, schedule: Q01DX005 (ip), vehicle: saline with Tween-80
[5] = dose: 100.0 mg/kg/injection, schedule: Q01DX005 (ip), vehicle: saline with Tween-80
[6] = dose: 200.0 mg/kg/injection, schedule: Q01DX005 (ip), vehicle: saline with Tween-80
[7] = dose: 60.0 mg/kg/injection, schedule: Q01DX005 (ip), vehicle: saline with Tween-80
[8] = dose: 120.0 mg/kg/injection, schedule: Q01DX005 (ip), vehicle: saline with Tween-80
[9] = dose: 240.0 mg/kg/injection, schedule: Q01DX005 (ip), vehicle: saline with Tween-80
[10] = dose: 25.0 mg/kg/injection, schedule: Q01DX005 (ip), vehicle: Klucel (hydroxypropylcellulose) (HPC)
[11] = dose: 50.0 mg/kg/injection, schedule: Q01DX009 (ip), vehicle: Klucel (hydroxypropylcellulose) (HPC)
[12] = dose: 100.0 mg/kg/injection, schedule: Q01DX009 (ip), vehicle: Klucel (hydroxypropylcellulose) (HPC)
[13] = dose: 50.0 mg/kg/injection, schedule: Q01DX009 (ip), vehicle: saline with Tween-80
[14] = dose: 200.0 mg/kg/injection, schedule: Q01DX009 (ip), vehicle: saline with Tween-80
[15] = dose: 6.25 mg/kg/injection, schedule: Q01DX009 (ip), vehicle: saline
[16] = dose: 12.5 mg/kg/injection, schedule: Q01DX009 (ip), vehicle: saline
[17] = dose: 25.0 mg/kg/injection, schedule: Q01DX009 (ip), vehicle: saline

Measured: T/C

CCN1C(=O)C(=C2C=C(c3ccccc3)C(C#N)(c3ccccc3)C(c3ccccc3)=C2)C(=O)N(CC)C1=S (stereo unspecified)
inactive: [1] 99 % of control | [2] 97 % of control | [3] 98 % of control

ClCC[N-]CC[N-]CCCl.ClCC[N-]CC[N-]CCCl.[O-][Cl+3]([O-])([O-])O.[Zn+2]
inactive: dose: 5.0 mg/kg/injection, schedule: Q04DX003 (ip), vehicle: saline with Tween-80 102 % of control | dose: 10.0 mg/kg/injection, schedule: Q04DX003 (ip), vehicle: saline with Tween-80 111 % of control

CCC1(O)C(=O)OCc2c1cc(-c1ccc(Cl)cc1)nc2OC (stereo unspecified)
inactive: dose: 12.5 mg/kg/injection, schedule: Q01DX009 (ip), vehicle: distilled water + Tween-80 101 % of control | dose: 25.0 mg/kg/injection, schedule: Q01DX009 (ip), vehicle: distilled water + Tween-80 100 % of control | dose: 50.0 mg/kg/injection, schedule: Q01DX009 (ip), vehicle: distilled water + Tween-80 99 % of control | dose: 100.0 mg/kg/injection, schedule: Q01DX009 (ip), vehicle: distilled water + Tween-80 91 % of control | dose: 200.0 mg/kg/injection, schedule: Q01DX009 (ip), vehicle: distilled water + Tween-80 98 % of control

O=c1[nH]cnc2ccc3cn[nH]c3c12
inactive: [4] 100 % of control | [5] 105 % of control | [6] 106 % of control

COCCOCCN1CCN(CCCN2c3ccccc3Sc3ccc(C(F)(F)F)cc32)CC1
inactive: dose: 1.56 mg/kg/injection, schedule: Q04DX003 (ip), vehicle: saline 95 % of control | dose: 3.0 mg/kg/injection, schedule: Q04DX003 (ip), vehicle: saline 104 % of control and 97 % of control | dose: 3.12 mg/kg/injection, schedule: Q04DX003 (ip), vehicle: saline 95 % of control | dose: 6.0 mg/kg/injection, schedule: Q04DX003 (ip), vehicle: saline 108 % of control | dose: 6.25 mg/kg/injection, schedule: Q04DX003 (ip), vehicle: saline 96 % of control | dose: 12.0 mg/kg/injection, schedule: Q04DX003 (ip), vehicle: saline 104 % of control and 122 % of control | dose: 12.5 mg/kg/injection, schedule: Q04DX003 (ip), vehicle: saline 120 % of control | dose: 50.0 mg/kg/injection, schedule: Q04DX003 (ip), vehicle: saline 124 % of control

CC(=O)OCc1c(C)[nH]c2ccc(N(C)C)cc2c1=O
inactive: [7] 88 % of control | [8] 103 % of control | [9] 111 % of control

COc1cc(C(c2cc3c(cc2O)OCO3)N2CCOCC2)cc(OC)c1OC (stereo unspecified)
inactive: [7] 107 % of control | [8] 111 % of control

Nc1nc2c(c(=O)[nH]1)N(C(=O)CCCC(=O)O)C(CN(C(=O)CCCC(=O)O)c1ccc(C(=O)NC(CCC(=O)O)C(=O)O)cc1)CN2 (stereo unspecified) (tested in a mixture with another compound)
inactive: dose: 50.0 mg/kg/injection, schedule: Q01DX009 (ip), vehicle: saline 94 % of control | dose: 100.0 mg/kg/injection, schedule: Q01DX009 (ip), vehicle: saline 110 % of control | dose: 200.0 mg/kg/injection, schedule: Q01DX009 (ip), vehicle: saline 95 % of control

CSc1nnc(C2CCC(=O)N2Cc2ccccc2)o1 (stereo unspecified)
inactive: dose: 60.0 mg/kg/injection, schedule: Q01DX005 (ip), vehicle: saline 105 % of control | dose: 120.0 mg/kg/injection, schedule: Q01DX005 (ip), vehicle: saline 102 % of control | dose: 240.0 mg/kg/injection, schedule: Q01DX005 (ip), vehicle: saline 104 % of control

Oc1c(Cl)c(Cl)c(O)c(Cl)c1Cl
inactive: dose: 6.25 mg/kg/injection, schedule: Q04DX003 (ip), vehicle: Klucel (hydroxypropylcellulose) (HPC) 98 % of control | dose: 12.5 mg/kg/injection, schedule: Q04DX003 (ip), vehicle: Klucel (hydroxypropylcellulose) (HPC) 99 % of control | dose: 25.0 mg/kg/injection, schedule: Q04DX003 (ip), vehicle: Klucel (hydroxypropylcellulose) (HPC) 98 % of control

CC(=O)/C=C1/NC=CN(C(=O)c2ccccc2)C1c1ccccc1 (stereo unspecified)
inactive: dose: 60.0 mg/kg/injection, schedule: Q01DX005 (ip), vehicle: Klucel (hydroxypropylcellulose) (HPC) 94 % of control | dose: 120.0 mg/kg/injection, schedule: Q01DX005 (ip), vehicle: Klucel (hydroxypropylcellulose) (HPC) 92 % of control | dose: 240.0 mg/kg/injection, schedule: Q01DX005 (ip), vehicle: Klucel (hydroxypropylcellulose) (HPC) 87 % of control

CN1c2ccc(C=O)cc2Sc2cc(C=O)ccc21
inactive: [7] 91 % of control | [8] 91 % of control | [9] 90 % of control

COC(=O)C1C(O)C(C)C(O)OC1C(C)C(O)C(C)/C=C\C=C(/C)C(=O)Nc1c(C)c(OC(C)=O)c2c(c1O)C(=O)C(C)=C1OCOC(/C(C)=C/C(C)=O)=C12 (stereo unspecified)
inactive: dose: 12.5 mg/kg/injection, schedule: Q01DX009 (ip), vehicle: Klucel (hydroxypropylcellulose) (HPC) 103 % of control | [10] 106 % of control | dose: 25.0 mg/kg/injection, schedule: Q01DX009 (ip), vehicle: Klucel (hydroxypropylcellulose) (HPC) 108 % of control | [1] 113 % of control | [11] 112 % of control | [2] 113 % of control | [12] 108 % of control | [3] 118 % of control

CCCCCCCCSc1nc(Nc2cc(C(C)(C)C)c(O)c(C(C)(C)C)c2)nc(SCCCCCCCC)n1
inactive: dose: 12.5 mg/kg/injection, schedule: Q01DX009 (ip), vehicle: saline with Tween-80 105 % of control | dose: 25.0 mg/kg/injection, schedule: Q01DX009 (ip), vehicle: saline with Tween-80 104 % of control | [13] 99 % of control and 92 % of control | [14] 100 % of control

COc1cc(NCCCCCCNCC(C)C)c2nccc(C)c2c1
inactive: [15] 95 % of control | [16] 95 % of control | [17] 96 % of control

CC12CC3CC(C)(C1)CC(SCCN)(C3)C2
inactive: [7] 105 % of control | [8] 100 % of control

CC1CCC(C(C)C)C(NC(=O)c2cccnc2)C1 (stereo unspecified)
inactive: dose: 25.0 mg/kg/injection, schedule: Q04DX002 (ip), vehicle: Klucel (hydroxypropylcellulose) (HPC) 102 % of control | dose: 52.0 mg/kg/injection, schedule: Q04DX002 (ip), vehicle: Klucel (hydroxypropylcellulose) (HPC) 101 % of control | dose: 100.0 mg/kg/injection, schedule: Q04DX002 (ip), vehicle: Klucel (hydroxypropylcellulose) (HPC) 100 % of control | dose: 200.0 mg/kg/injection, schedule: Q04DX002 (ip), vehicle: Klucel (hydroxypropylcellulose) (HPC) 103 % of control

Oc1c(Cl)cc(C(c2cc(Cl)c(O)c(Cl)c2)C(c2cc(Cl)c(O)c(Cl)c2)c2cc(Cl)c(O)c(Cl)c2)cc1Cl
inactive: dose: 100.0 mg/kg/injection, schedule: Q04DX003 (ip), vehicle: Klucel (hydroxypropylcellulose) (HPC) 115 % of control

CN(C)C1C(=O)C(C(N)=O)=C(O)C2(O)C(=O)C3=C(O)c4c(O)cccc4C(C)(O)C3CC12 (stereo unspecified)
inactive: [10] 94 % of control | [1] 95 % of control | [2] 95 % of control

CC(C)(C)N=C(CCSc1ccccc1)Nc1c(Cl)cccc1Cl
inactive: [13] 100 % of control | dose: 100.0 mg/kg/injection, schedule: Q01DX009 (ip), vehicle: saline with Tween-80 105 % of control | [14] 96 % of control

CCCCCCCCCCCCCCCCCc1ccccc1O
inactive: dose: 7.5 mg/kg/injection, schedule: Q01DX009 (ip), vehicle: saline with Tween-80 91 % of control | dose: 15.0 mg/kg/injection, schedule: Q01DX009 (ip), vehicle: saline with Tween-80 94 % of control | dose: 30.0 mg/kg/injection, schedule: Q01DX009 (ip), vehicle: saline with Tween-80 116 % of control

COc1cccc(C(=O)NC(=O)NC(=O)c2ccccc2)c1
inactive: dose: 100.0 mg/kg/injection, schedule: Q04DX002 (ip), vehicle: saline with Tween-80 100 % of control | dose: 200.0 mg/kg/injection, schedule: Q04DX002 (ip), vehicle: saline with Tween-80 93 % of control | dose: 400.0 mg/kg/injection, schedule: Q04DX002 (ip), vehicle: saline with Tween-80 93 % of control

C[N+](c1ccc(Cl)cc1)=S(C)(C)=O
inactive: [15] 99 % of control | [16] 94 % of control | [17] 98 % of control

N#CC(=Nc1ccc2ccccc2c1)C1=C(O)c2ccccc2C1=O
inactive: [1] 101 % of control | [2] 101 % of control | [3] 110 % of control

CCN1N=Nc2ccccc2NC1=O
inactive: [4] 101 % of control | [5] 91 % of control | [6] 96 % of control

Cc1ccc2c(c1)sc1nnc(C)n12
inactive: [11] 114 % of control | [12] 97 % of control
